The text below walks through data of patent US5837728A, “9-cis retinoic acid esters and amides and uses thereof” (priority 1995, dated 1998).

The test system of series [1] is pseudocomedone (utriculus) of the rhino mouse. In words: Topical rhino mouse pseudocomedone (utriculus) reduction assay. In kind it is in vivo. Details: Utriculus reduction (Table 1) / Utriculus reduction (Table 3): key to the marks not given beside the values. Conditions: for Utriculus reduction (Table 1): 0.1% concentration, once daily 5 days/week for two weeks; for Utriculus reduction (Table 3): concentration 0.1 (unit not given); for Utriculus Reduction (Table 7): two weeks. As for the experimental part:
A topical assay to test for pseudocomedone (utriculus) reduction in the rhino mouse is conducted.
Each test compound and a vehicle control is applied topically to the dorsal trunk of the rhino mouse. The utriculus diameters are measured with a ocular micrometer. […] Kligman, et al., The Effect on Rhino Mouse Skin of Agents which Influence Keratinization and Exfoliation, J. Invest. Derm. […] Van Scott, Experimental Animal Integumental Models for Screening Potential Dermatologic Drugs, In Pharmacology of the Skin, eds. […] Mann, Hair Loss and Cyst Formation in Hairless and Rhino Mutant Mice, Anat. Rec. […] Mezick, et al., Topical and Systemic Effects of Retinoids on Horn-Filled Utriculus Size in the Rhino Mouse. A Model to Quantify Antikeratinizing Effects of Retinoids, J. Invest. Derm. […] Mezick, et al., Anti-Acne Activity of Retinoids in the Rhino Mouse, In Models in Dermatology, eds.
(§1) The dorsal trunk of the rhino mouse is the test site. Each test compound is dissolved in alcohol:propylene glycol (70:30, v:v) or other suitable vehicle and topically applied (0.1 ml) to the dorsal trunk once daily, five consecutive days/week for two weeks. Also, administration may be oral (p.o.) in a suitable vehicle. Following treatment, the animals are sacrificed by cervical dislocation. The treated dorsal trunk skin is removed from the animal and placed into 0.5% acetic acid for up to 18 hours at approximately 4° C. After this, the epidermis with the acne cysts is separated from the underlying dermis. The sheets of epidermis are processed by routine methods to permanent whole mounts for microscopic examination. Also, full-thickness samples may be taken, stained (H&E), and examined by light microscopy.
The utriculus diameters are measured with an ocular micrometer to compare effects of test compounds to vehicle control and/or reference compound on cyst reduction. Light microscopy is used to determine effects on cell differentiation.
Another topical assay is conducted following the procedure described above.
Each test compound and a vehicle control was applied topically to the dorsal trunk of the rhino mouse. The utriculus diameters are measured with a ocular micrometer. […] Kligman, et al., J. Invest. […] Van Scott, Pharmacology of the Skin, eds. […] Mann, Anat. […] Mezick, et al, J. Invest. […] Mezick et al., Models in Dermatology, eds.
as §1, with “(70:30,v:v)” for “(70:30, v:v)”, “weeks.” for “weeks. Also, administration may be oral (p.o.) in a suitable vehicle.”, “"acne cysts"” for “acne cysts”, “are” for “may be”, “(H&E)” for “(H&E),”, “microscope.” for “microscopy.”

For a further series, the system named is sebaceous gland. In words: Oral hamster sebaceous gland reduction assay. In kind it is in vivo, male Syrian golden hamsters. Details: key to the marks not given beside the values. The settings on record: 32 mg/kg. As for the experimental part:
An oral assay for hamster sebaceous gland reduction is conducted.
Hamsters are dosed orally with the test compound and vehicle alone. The reduction in sebaceous gland size is estimated microscopically in relation to the control. The assay is unique and proprietary to Ortho Pharmaceutical Corp. and is based upon the work of Plewig et al. (1977) and Gomex et al. (1980). Plewig, et al., Hamster Ear Model for Sebaceous Glands, J. Invest. Derm. 68: 171-176 (1977). Gomez, et al., Effect of 13-cis-Retinoic Acid on the Hamster Flank Organ, J. Invest. Derm. 74: 392-397 (1980).
For oral (p.o.) studies, male Syrian golden hamsters are […] at 5 ml/kg, once daily, five consecutive days/week for two or three weeks. Modified but similar dosing schedules could be used. Control hamsters are dosed with vehicle alone at 5 ml/kg. Following final treatment (up to 72 hours), the hamsters are sacrificed in a CO2 atmosphere. Samples of each test site are placed into 10% buffered formalin and histologically prepared. Serial sections of each sample are stained (H&E) and examined microscopically.
The reduction in sebaceous gland size is estimated microscopically in relation to the control treated sites. To quantify sebaceous gland size, cross-sectional areas are measured with an image analyzer system.

For series [2], the system named is skin (inner forearm, cheek). As to the kind of experiment: Topical assay for comparative dermal irritation in human subjects. In kind it is in vivo, human (patients). Conditions: for Irritant reactions, inner forearm: first test, 0.025% solution; for Irritant reactions, inner forearm / Irritant reaction, inner forearm: twice daily for ten days; for Irritant reaction, inner forearm: second test, one subject of four reacted; for Irritant reaction, inner forearm / Irritation of the cheeks: 0.075% solution; for Irritation of the cheeks: third test, twice daily, six days. As for the experimental part:
2-(9-cis-retinoyloxy)-4-methoxyacetophenone is evaluated in a study of its potential to produce dermal irritation. Comparisons are made of tretinoin, isotretinoin, 2-(9-cis-retinoyloxy)-4-methoxyacetophenone, and the vehicle solution.
In the first test, four solutions are used. The control consists of vehicle solution, namely a solution of 60% by volume ethanol and 40% by volume polyethylene glycol. The other three solutions are 0.025% solutions of tretinoin, isotretinoin, or 2-(9-cis-retinoyloxy)-4-methoxyacetophenone in 60% by volume ethanol and 40% by volume polyethylene glycol. Four patients paint two saturated cotton swabs of each of the four solutions on four different areas of the inner forearm, twice daily for ten days.
In the second test, four other solutions are used. The control consists of vehicle solution, namely a solution of 90% by volume ethanol and 10% by volume polyethylene glycol. The other three solutions are 0.075% solutions of tretinoin, isotretinoin, or 2-(9-cis-retinoyloxy)-4-methoxyacetophenonein 90% by volume ethanol and 10% by volume polyethylene glycol. Four patients paint two saturated cotton swabs of each of the four solutions on four different areas of the inner forearm, twice daily for ten days. Only one subject experiences an irritant reaction. […] By day nine, both areas are still reacting, the tretinoin area more intensely than the isotretinoin area. There is no reaction in either the 2-(9-cis-retinoyloxy)-4-methoxyacetophenone or the control areas.
In the third test, three solutions are used. The three solutions are 0.075% solutions of tretinoin, isotretinoin, or 2-(9-cis-retinoyloxy)-4-methoxyacetophenone in 90% by volume ethanol and 10% by volume polyethylene glycol. Four patients paint two saturated cotton swabs of the 2-(9-cis-retinoyloxy)-4-methoxyacetophenone solution twice daily on one cheek of their faces. To the other cheek they apply two saturated cotton swabs of either tretinoin or isotretinoin.
The tests are carried out in double-blind fashion, that is, neither the subjects nor the investigator know the contents of the solutions during the study.
Clinical assessments are made daily of the subjects cheeks. All subjects develop irritant reactions by the third or fourth day of the study.

In the case of `COc1ccc(C(=O)COC(=O)/C=C(C)/C=C/C=C(C)\C=C\C2=C(C)CCCC2(C)C)cc1` [Compound 2, 2-(9-cis-retinoyloxy)-4'-methoxyacetophenone], in series [1], the “Utriculus reduction (Table 1)” value is “+++” and the “Utriculus reduction (Table 3)” value is “+++”. The Sebaceous gland reduction result with sebaceous gland is “+++”. In series [2], the “Irritant reactions, inner forearm” value is “No irritant reactions occur”; the “Irritant reaction, inner forearm” value is recorded as “no reaction”; the “Irritation of the cheeks” value is recorded as “slightly irritated or not irritated at all”.
For the compound `CC1=C(/C=C/C(C)=C/C=C/C(C)=C/C(=O)O)C(C)(C)CCC1` [all-trans-retinoic acid, reference compound], in series [1], the “Utriculus reduction (Table 1)” value is “++” and the “Utriculus reduction (Table 3)” value is given as “++”. Besides, the “Utriculus Reduction (Table 7)” value in series [1] (dose 0.0005%) was 34.1. Moreover, the “Utriculus Reduction (Table 7)” value in series [1] (dose 0.005%) was determined as 49.9. Besides, in series [1] (dose 0.05%), the “Utriculus Reduction (Table 7)” value was 72.8. The Sebaceous gland reduction entry with sebaceous gland was “+++”. In series [2], the “Irritant reactions, inner forearm” value is recorded as “No irritant reactions occur”; the “Irritant reaction, inner forearm” value was “On day two, the tretinoin area begins reacting with redness and peeling”; the “Irritation of the cheeks” value was “reactions which are so intense with redness and peeling that all subjects discontinue application on or before the sixth day”.
